Results taken from patent US9138418B2, “Therapeutic compositions and methods for delivery of active agents cleavably linked to nanoparticles” (priority 2009, dated 2015).

Tested on: MCF-7 breast cancer cells
Test: MTT cell growth inhibition assay in MCF-7 breast cancer cells
Format: cell-based
Conditions: 72 hours post treatment, concentrations with respect to paclitaxel content
Description: The antiproliferative capabilities of PTX-AuNPs from Example 1 were first investigated in vitro. To this end, cellular assays were performed to compare the ability of the PTX-AuNPs to inhibit cell growth relative to the parent drug. Briefly, MCF-7 breast cancer cells were treated over a range of concentrations (based on equivalent PTX content) for all samples and relative cell survival was measured 72 hours post treatment following the MTT protocol. Additionally, the paclitaxel pyruvate compound was also analyzed, as it represented the agent released from the gold surface upon degradation of the hydrazone linker. MCF-7 cells were plated in 6 well plates and allowed to proliferate until approximately 80-90% confluent. Once optimal confluency was reached, increasing concentrations of PTX-AuNPs were added to each well in order to ensure sufficient uptake for imaging (up to 100 μg/mL). Following 12 hours of incubation with PTX-AuNPs, the cells were fixed with a solution of gluteraldehyde and imaged by transmission electron microscopy (TEM). MCF-7 breast cancer cells were plated in 96-well plates at a concentration of 4,000 cells/well (100 μL/well) and allowed to attach for 24 hours. […] Upon agitating the plates for 2 minutes, absorbance values were recorded using a plate reader (Gene Mate, BioTek) equipped with a 570 nm filter.

Structure (SMILES)	IC50 (MCF-7 cells) [nM]	IC50 (Homo sapiens, MCF7, MCF-7 cells) [nM]
CC(=O)OC1C(=O)C2(C)C(O)CC3OCC3(OC(C)=O)C2C(OC(=O)c2ccccc2)C2(O)CC(OC(=O)C(OC(=O)C(C)=O)C(NC(=O)c3ccccc3)c3ccccc3)C(C)=C1C2(C)C (centres unmarked) [paclitaxel pyruvate, Paclitaxel 2′ Pyruvate]	9	–
CC(=O)O[C@H]1C(=O)[C@@]2(C)[C@H]([C@H](OC(=O)c3ccccc3)[C@]3(O)C[C@H](OC(=O)[C@H](O)[C@@H](NC(=O)c4ccccc4)c4ccccc4)C(C)=C1C3(C)C)[C@]1(OC(C)=O)CO[C@@H]1C[C@@H]2O [paclitaxel]	–	~4
